The text below walks through data of PubChem BioAssay AID1259407 (Chemical Carcinogenesis Research Information System (CCRIS), 2018).

Active and inactive are the calls of the source. How the calls were made is not given here.

For this data set, the system named is CCRIS mutagenicity, Ames/micronucleus/aberration tests. The data set can be described thus: CCRIS mutagenicity studies.
Where [1] appears, read: Test System: AMES SALMONELLA TYPHIMURIUM, Strain/Indicator: TA98, Metabolic Activation: HAMSTER, LIVER, S-9, AROCLOR 1254 (10%), Method: PREINCUBATION
Setting [2] is: Test System: AMES SALMONELLA TYPHIMURIUM, Strain/Indicator: TA98, Metabolic Activation: NONE, Method: PREINCUBATION
Setting [3] is: Test System: AMES SALMONELLA TYPHIMURIUM, Strain/Indicator: TA100, Metabolic Activation: HAMSTER, LIVER, S-9, AROCLOR 1254 (10%), Method: PREINCUBATION
Setting [4] is: Test System: AMES SALMONELLA TYPHIMURIUM, Strain/Indicator: TA100, Metabolic Activation: NONE, Method: PREINCUBATION
Setting [5] is: Test System: AMES SALMONELLA TYPHIMURIUM, Strain/Indicator: TA1535, Metabolic Activation: HAMSTER, LIVER, S-9, AROCLOR 1254 (10%), Method: PREINCUBATION
The mark [6] stands for this setting: Test System: AMES SALMONELLA TYPHIMURIUM, Strain/Indicator: TA1535, Metabolic Activation: NONE, Method: PREINCUBATION
The mark [7] stands for this setting: Test System: AMES SALMONELLA TYPHIMURIUM, Strain/Indicator: TA100, Metabolic Activation: NONE, Method: STANDARD PLATE.
Setting [8] is: Test System: AMES SALMONELLA TYPHIMURIUM, Strain/Indicator: TA100, Metabolic Activation: RAT, LIVER, S-9, AROCLOR 1254 (10% OR 20%), Method: STANDARD PLATE.
The mark [9] stands for this setting: Test System: AMES SALMONELLA TYPHIMURIUM, Strain/Indicator: TA97, Metabolic Activation: NONE, Method: PREINCUBATION
Where [10] appears, read: Test System: AMES SALMONELLA TYPHIMURIUM, Strain/Indicator: TA97, Metabolic Activation: RAT, LIVER, S-9, AROCLOR 1254 (10 OR 30%), Method: PREINCUBATION
Where [11] appears, read: Test System: AMES SALMONELLA TYPHIMURIUM, Strain/Indicator: TA98, Metabolic Activation: RAT, LIVER, S-9, AROCLOR 1254 (10 OR 30%), Method: PREINCUBATION
Where [12] appears, read: Test System: AMES SALMONELLA TYPHIMURIUM, Strain/Indicator: TA100, Metabolic Activation: RAT, LIVER, S-9, AROCLOR 1254 (10 OR 30%), Method: PREINCUBATION
Where [13] appears, read: Test System: AMES SALMONELLA TYPHIMURIUM, Strain/Indicator: TA1535, Metabolic Activation: RAT, LIVER, S-9, AROCLOR 1254 (10 OR 30%), Method: PREINCUBATION

In the case of `Oc1ccc2c3ccccc3c3cc4ccccc4cc3c2c1`, the mutagenic call (Test System: AMES SALMONELLA TYPHIMURIUM, Strain/Indicator: TA100, Metabolic Activation: RAT, LIVER, S-9, AROCLOR 1254, Method: PREINCUBATION) is “active; positive”.

Take `CC(C)(c1cc(Br)c(O)c(Br)c1)c1cc(Br)c(O)c(Br)c1`: the mutagenic call is “inactive; negative” under setting [1]; “inactive; negative” under setting [2]; “inactive; negative” (Test System: AMES SALMONELLA TYPHIMURIUM, Strain/Indicator: TA98, Metabolic Activation: RAT, LIVER, S-9, AROCLOR 1254 (10%), Method: PREINCUBATION); “inactive; negative” under setting [3]; “inactive; negative” under setting [4]; “inactive; negative” (Test System: AMES SALMONELLA TYPHIMURIUM, Strain/Indicator: TA100, Metabolic Activation: RAT, LIVER, S-9, AROCLOR 1254 (10%), Method: PREINCUBATION). The mutagenic call was “inactive; negative” under setting [5]; “inactive; negative” under setting [6]; “inactive; negative” (Test System: AMES SALMONELLA TYPHIMURIUM, Strain/Indicator: TA1535, Metabolic Activation: RAT, LIVER, S-9, AROCLOR 1254 (10%), Method: PREINCUBATION); “inactive; negative” (Test System: AMES SALMONELLA TYPHIMURIUM, Strain/Indicator: TA1537, Metabolic Activation: HAMSTER, LIVER, S-9, AROCLOR 1254 (10%), Method: PREINCUBATION); “inactive; negative” (Test System: AMES SALMONELLA TYPHIMURIUM, Strain/Indicator: TA1537, Metabolic Activation: NONE, Method: PREINCUBATION); “inactive; negative” (Test System: AMES SALMONELLA TYPHIMURIUM, Strain/Indicator: TA1537, Metabolic Activation: RAT, LIVER, S-9, AROCLOR 1254 (10%), Method: PREINCUBATION).

With `Cn1cnc(-c2ccccc2)c1N=O`, the mutagenic call under setting [7] is “active; positive”.

Take `O=c1cc[nH]c2ccccc12`: the mutagenic call is “inactive; negative” under setting [7] and “inactive; negative” under setting [8].

In the case of `[O-][n+]1cccc2c1C=C[C@H]1O[C@@H]21`, the mutagenic call under setting [7] is “inactive; negative” and the mutagenic call under setting [8] was “inactive; negative”.

`COCCO`: the mutagenic call reads like this: (Test System: AMES SALMONELLA TYPHIMURIUM, Strain/Indicator: TA97, Metabolic Activation: HAMSTER, LIVER, S-9, AROCLOR 1254 (10 OR 30%), Method: PREINCUBATION) “inactive; negative”; under setting [9], “inactive; negative”; under setting [10], “inactive; negative”; (Test System: AMES SALMONELLA TYPHIMURIUM, Strain/Indicator: TA97A, Metabolic Activation: NONE, Method: STANDARD PLATE) “inactive; negative”; (Test System: AMES SALMONELLA TYPHIMURIUM, Strain/Indicator: TA97A, Metabolic Activation: RAT, LIVER, S-9, AROCLOR 1254, Method: STANDARD PLATE) “inactive; negative”; (Test System: AMES SALMONELLA TYPHIMURIUM, Strain/Indicator: TA98, Metabolic Activation: HAMSTER, LIVER, S-9, AROCLOR 1254 (10 OR 30%), Method: PREINCUBATION) “inactive; negative”. In addition, the mutagenic call was “inactive; negative” under setting [2]; “inactive; negative” (Test System: AMES SALMONELLA TYPHIMURIUM, Strain/Indicator: TA98, Metabolic Activation: NONE, Method: STANDARD PLATE); “inactive; negative” under setting [11]; “inactive; negative” (Test System: AMES SALMONELLA TYPHIMURIUM, Strain/Indicator: TA98, Metabolic Activation: RAT, LIVER, S-9, AROCLOR 1254, Method: STANDARD PLATE); “inactive; negative” (Test System: AMES SALMONELLA TYPHIMURIUM, Strain/Indicator: TA100, Metabolic Activation: HAMSTER, LIVER, S-9, AROCLOR 1254 (10 OR 30%), Method: PREINCUBATION); “inactive; negative” under setting [4]. Further, the mutagenic call under setting [7] is “inactive; negative”; the mutagenic call under setting [12] was “inactive; negative”; the mutagenic call (Test System: AMES SALMONELLA TYPHIMURIUM, Strain/Indicator: TA100, Metabolic Activation: RAT, LIVER, S-9, AROCLOR 1254, Method: STANDARD PLATE) is “inactive; negative”; the mutagenic call (Test System: AMES SALMONELLA TYPHIMURIUM, Strain/Indicator: TA102, Metabolic Activation: NONE, Method: STANDARD PLATE) is “inactive; negative”; the mutagenic call (Test System: AMES SALMONELLA TYPHIMURIUM, Strain/Indicator: TA102, Metabolic Activation: RAT, LIVER, S-9, AROCLOR 1254, Method: STANDARD PLATE) is “inactive; negative”; the mutagenic call (Test System: AMES SALMONELLA TYPHIMURIUM, Strain/Indicator: TA1535, Metabolic Activation: HAMSTER, LIVER, S-9, AROCLOR 1254 (10 OR 30%), Method: PREINCUBATION) was “inactive; negative”. In addition, the mutagenic call was “inactive; negative” under setting [6]; “inactive; negative” under setting [13]; “inactive; negative” (Test System: CHINESE HAMSTER OVARY, Strain/Indicator: CHO AS52 (GPT)/6-THIOGUANINE, Metabolic Activation: NONE); “inactive; negative” (Test System: CHINESE HAMSTER OVARY, Strain/Indicator: CHO-AS52/6-THIOGUANINE, Metabolic Activation: NONE); “inactive; negative” (Test System: CHINESE HAMSTER OVARY, Strain/Indicator: CHO-K1-BH4 (HGPRT)/6-THIOGUANINE, Metabolic Activation: NONE); “inactive; negative” (Test System: CHINESE HAMSTER OVARY, Strain/Indicator: CHO-K1-BH4 (HGPRT)/6-THIOGUANINE, Metabolic Activation: RAT, LIVER, S-9, AROCLOR 1254).

For `O=C1c2cc(O)cc(O)c2C(=O)c2c1cc1c(c2O)[C@@H]2C=CO[C@@H]2O1`, under “Test System: UDS RODENT HEPATOCYTES, Strain/Indicator: THY INCORP, Metabolic Activation: NONE, Method: AUTORADIOGRAPHY”, the mutagenic call was “active; positive”.

For the compound `CCOP(=O)(NC(C)C)Oc1ccc(SC)c(C)c1` (centres undefined), the mutagenic call is, setting by setting: (Test System: AMES SALMONELLA TYPHIMURIUM, Strain/Indicator: TA97, Metabolic Activation: HAMSTER, LIVER, S-9, AROCLOR 1254 (10%), Method: PREINCUBATION) “inactive; negative”; (Test System: AMES SALMONELLA TYPHIMURIUM, Strain/Indicator: TA97, Metabolic Activation: HAMSTER, LIVER, S-9, AROCLOR 1254 (30%), Method: PREINCUBATION) “inactive; negative”; under setting [9], “inactive; negative”; under setting [10], “inactive; negative”; under setting [1], “inactive; negative”; (Test System: AMES SALMONELLA TYPHIMURIUM, Strain/Indicator: TA98, Metabolic Activation: HAMSTER, LIVER, S-9, AROCLOR 1254 (30%), Method: PREINCUBATION) “inactive; negative”. Moreover, the mutagenic call under setting [2] was “inactive; negative”; the mutagenic call under setting [11] is “inactive; negative”; the mutagenic call under setting [3] is “inactive; negative”; the mutagenic call (Test System: AMES SALMONELLA TYPHIMURIUM, Strain/Indicator: TA100, Metabolic Activation: HAMSTER, LIVER, S-9, AROCLOR 1254 (30%), Method: PREINCUBATION) was “inactive; negative”; the mutagenic call under setting [4] was “inactive; negative”; the mutagenic call under setting [12] is “inactive; negative”. Moreover, the mutagenic call was “inactive; negative” under setting [5]; “inactive; negative” (Test System: AMES SALMONELLA TYPHIMURIUM, Strain/Indicator: TA1535, Metabolic Activation: HAMSTER, LIVER, S-9, AROCLOR 1254 (30%), Method: PREINCUBATION); “inactive; negative” under setting [6]; “inactive; negative” under setting [13].
